The term LD50 denotes the dose expected to kill half of the subjects tested.

Results on six molecules are retold here after patent publication US5155041A, “Culture of Bacillus subtilis” (Korea Research Institute of Chemical Technology, priority 1990, dated 1992).

The subject of one series is Cercospora kikuchi. The series can be described thus: Minimum inhibitory concentration, agar dilution. It counts as cell-based.
The subject of a further series is Fusarium roseum. In words: microbe, parasite or virus in culture. Type of series: cell-based.
A further series has as its system Glomerella glycine. In words: Minimum inhibitory concentration, agar dilution. It counts as cell-based. A general note: Agar dilution tests growth on a series of plates holding different concentrations.
Another series concerns Phytophthora capsici. The series can be described thus: Minimum inhibitory concentration, agar dilution. It counts as cell-based.
Another series concerns Phytophthora parasitica. In words: Minimum inhibitory concentration, agar dilution. It counts as cell-based.
Another series has as its system Pyricularia oryzae. The series can be described thus: microbe, parasite or virus in culture. Type of series: cell-based.
A further series deals with Rhizoctonia solani. In words: Minimum inhibitory concentration, agar dilution. Type of series: cell-based.
A further series deals with Rhizopus sp. The series can be described thus: Minimum inhibitory concentration, agar dilution. It counts as cell-based.
In series [1] the test system is Asperillus fumigatus ATCC 164264. In words: Minimum inhibitory concentration, agar dilution. It counts as cell-based.
The test system of series [2] is Cladosporium carrionii ATCC 1624. The series can be described thus: Minimum inhibitory concentration, agar dilution. It counts as cell-based.
Series [3] has as its system Coccidioides immitis ATCC 34020. In words: microbe, parasite or virus in culture. Type of series: cell-based.
The subject of series [4] is Epidermopyton floccosum ATCC 38486. In words: Minimum inhibitory concentration, agar dilution. It counts as cell-based.
The test system of series [5] is Microsporum canis ATCC 11622. The series can be described thus: Minimum inhibitory concentration, agar dilution. Type of series: cell-based.
In the next series the test system is Microsporum gypseum. The series can be described thus: Minimum inhibitory concentration, agar dilution. It counts as cell-based.
For series [6], the system named is Sporothrix schenkii ATCC 10212. In words: Minimum inhibitory concentration, agar dilution. It counts as cell-based.
Series [7] concerns Trichophyton mentagrophytes ATCC 9533. The series can be described thus: Minimum inhibitory concentration, agar dilution. Type of series: cell-based.
For another series, the system named is Trichophyton ruburum. In words: Minimum inhibitory concentration, agar dilution. Type of series: cell-based.
The next series deals with mice. The note with it: mouse, in vivo, ip; cited from earlier work.
For a further series, the system named is Botrytis cinerea. In words: Minimum inhibitory concentration, agar dilution.
The subject of a further series is Fusarium oxysporum. The series can be described thus: Minimum inhibitory concentration, agar dilution.
[8] abbreviates: Phytophthora capsici, read-out: MIC.
Where [9] appears, read: Rhizoctonia solani, read-out: MIC.
The mark [10] stands for this setting: Cercospora kikuchi, read-out: MIC.
The mark [11] stands for this setting: Glomerella glycine, read-out: MIC.
Setting [12] is: Phytophthora nicotianae, Phytophthora parasitica, read-out: MIC.
Setting [13] is: Asperillus fumigatus ATCC 164264, read-out: MIC.
The mark [14] stands for this setting: Cladophialophora carrionii, ATCC1624, Cladosporium carrionii ATCC 1624, read-out: MIC.
[15] abbreviates: Epidermopyton floccosum ATCC 38486, read-out: MIC.
The mark [16] stands for this setting: ATCC10212, Sporothrix schenkii ATCC 10212, read-out: MIC.
Setting [17] is: ATCC9533, Trichophyton mentagrophytes ATCC 9533, read-out: MIC.
Setting [18] is: Trichophyton ruburum, read-out: MIC.
Setting [19] is: ATCC11622, Microsporum canis ATCC 11622, read-out: MIC.
The mark [20] stands for this setting: Nannizzia gypsea, Microsporum gypseum, read-out: MIC.

In brackets after ≈: the same amount, converted by molar mass. Where two headings read alike, the source gives them in different places. Some results are limits rather than exact numbers.

As to `C[C@@H]1[C@H](O)[C@@H](C)/C=C/C=C/C=C/C=C/C=C/C=C/C=C/[C@H](O[C@@H]2O[C@H](C)[C@@H](O)[C@H](N)[C@@H]2O)C[C@@H]2O[C@](O)(C[C@@H](O)C[C@@H](O)[C@H](O)CC[C@@H](O)C[C@@H](O)CC(=O)O[C@H]1C)C[C@H](O)[C@H]2C(=O)O` [amphotericin B], the MIC against Cercospora kikuchi (Cercospora) amounted to 100 µg/mL (≈ 108 µM); in the series with Fusarium roseum (Fusarium sambucinum) it was 6 µg/mL (≈ 6.49 µM); against Glomerella glycine it was 25 µg/mL (≈ 27.1 µM); in the series on Phytophthora capsici (Phytophthora capsici) it was 25 µg/mL (≈ 27.1 µM); against Phytophthora parasitica (Phytophthora nicotianae) it was 50 µg/mL (≈ 54.1 µM); with Pyricularia oryzae, 0.2 µg/mL (≈ 0.216 µM). In addition, the MIC against Rhizoctonia solani (Rhizoctonia solani) was found to be 3 µg/mL (≈ 3.25 µM); against Rhizopus sp. (Rhizopus) it was 100 µg/mL (≈ 108 µM); in series [1] it was 1.5 µg/mL (≈ 1.62 µM); in series [2] (Cladophialophora carrionii, ATCC1624) it was 50 µg/mL (≈ 54.1 µM); in series [3] (ATCC34020), 0.4 µg/mL (≈ 0.433 µM); in series [4], 0.4 µg/mL (≈ 0.433 µM). In addition, the MIC is 1.5 µg/mL (≈ 1.62 µM) in series [5] (Microsporum canis, ATCC11622); 0.8 µg/mL (≈ 0.866 µM) against Microsporum gypseum (Nannizzia gypsea); 50 µg/mL (≈ 54.1 µM) in series [6] (Sporothrix, ATCC10212); 0.8 µg/mL (≈ 0.866 µM) in series [7] (Trichophyton mentagrophytes, ATCC9533); 0.8 µg/mL (≈ 0.866 µM) against Trichophyton ruburum (Trichophyton); 3 µg/mL (≈ 3.25 µM) against Botrytis cinerea (Botrytis cinerea). In the series on Fusarium oxysporum (Fusarium oxysporum), the MIC stood at 50 µg/mL (≈ 54.1 µM). Further, in the series on mice, the 50% lethal dose (LD50) was 88 mg/kg.

As for `C[C@@H]1C[C@@H]([C@H](O)CC2CC(=O)NC(=O)C2)C(=O)[C@@H](C)C1` [cycloheximide], the MIC amounted to 100 µg/mL (≈ 355 µM) in the series with Cercospora kikuchi (Cercospora, read-out: MIC); 25 µg/mL (≈ 88.9 µM) against Fusarium roseum (Fusarium sambucinum); 25 µg/mL (≈ 88.9 µM) with Glomerella glycine (read-out: MIC); 0.8 µg/mL (≈ 2.84 µM) with Phytophthora capsici (setting [8]); 1.5 µg/mL (≈ 5.33 µM) in the series on Phytophthora parasitica (Phytophthora nicotianae, read-out: MIC); 3 µg/mL (≈ 10.7 µM) in the series with Pyricularia oryzae (read-out: MIC). Moreover, the MIC with Rhizoctonia solani (setting [9]) was 12 µg/mL (≈ 42.7 µM); in the series with Rhizopus sp. (Rhizopus, read-out: MIC), over 100 µg/mL; in series [1] (read-out: MIC) it was 50 µg/mL (≈ 178 µM); in series [2] (Cladophialophora carrionii, ATCC1624, read-out: MIC), over 100 µg/mL; in series [3] (ATCC34020, read-out: MIC) it was over 100 µg/mL; in series [4] (read-out: MIC), over 100 µg/mL. In addition, the MIC in series [5] (Microsporum canis, ATCC11622, read-out: MIC) is over 100 µg/mL; with Microsporum gypseum (Nannizzia gypsea, read-out: MIC), over 100 µg/mL; in series [6] (Sporothrix, ATCC10212, read-out: MIC) it was over 100 µg/mL; in [7] (Trichophyton mentagrophytes, ATCC9533, read-out: MIC) it was over 100 µg/mL; in the series on Trichophyton ruburum (Trichophyton, read-out: MIC) it was over 100 µg/mL.

Consider `COC1=CC(=O)C[C@@H](C)[C@]12Oc1c(Cl)c(OC)cc(OC)c1C2=O` [griseofulvin], for which the MIC with Cercospora kikuchi (setting [10]) was over 100 µg/mL; in the series on Fusarium roseum (Fusarium sambucinum), over 100 µg/mL; with Glomerella glycine (setting [11]), over 100 µg/mL; in the series on Phytophthora capsici (setting [8]), 100 µg/mL (≈ 283 µM); in the series with Phytophthora parasitica (setting [12]) it was 25 µg/mL (≈ 70.9 µM); with Pyricularia oryzae, over 100 µg/mL. The MIC with Rhizoctonia solani (setting [9]) was 100 µg/mL (≈ 283 µM); with Rhizopus sp. (Rhizopus sp., read-out: MIC), over 100 µg/mL; in series [1] (setting [13]) it was over 100 µg/mL; in series [2] (setting [14]), over 100 µg/mL; in series [3] (ATCC34020), over 100 µg/mL; in [4] (setting [15]), 1.5 µg/mL (≈ 4.25 µM). The MIC in series [5] (Microsporum canis, ATCC11622) was 6 µg/mL (≈ 17 µM); against Microsporum gypseum (Nannizzia gypsea) it was 3 µg/mL (≈ 8.5 µM); in series [6] (setting [16]) it was over 100 µg/mL; in series [7] (setting [17]), 3 µg/mL (≈ 8.5 µM); in the series with Trichophyton ruburum (setting [18]), 1.5 µg/mL (≈ 4.25 µM).

Turning to `C[C@H]1O[C@H](O[C@H]2[C@H](O)[C@@H](O)[C@@H](O)[C@H](O)[C@@H]2O)[C@@H](N)C[C@@H]1NC(=N)C(=O)O` [kasugamycin], the MIC is over 100 µg/mL in the series with Cercospora kikuchi (setting [10]); over 100 µg/mL against Fusarium roseum (Fusarium sambucinum); over 100 µg/mL in the series on Glomerella glycine (setting [11]); over 100 µg/mL in the series on Phytophthora capsici (setting [8]); over 100 µg/mL in the series with Phytophthora parasitica (setting [12]); 25 µg/mL (≈ 65.9 µM) in the series with Pyricularia oryzae. Moreover, the MIC was over 100 µg/mL in the series with Rhizoctonia solani (setting [9]); over 100 µg/mL in the series on Rhizopus sp. (Rhizopus sp., read-out: MIC); over 100 µg/mL in [1] (setting [13]); over 100 µg/mL in series [2] (setting [14]); over 100 µg/mL in series [3] (ATCC34020); over 100 µg/mL in [4] (setting [15]). The MIC (in series [5] (setting [19]); in the series on Microsporum gypseum (setting [20]); in series [6] (setting [16]); in [7] (setting [17]); with Trichophyton ruburum (setting [18])) was over 100 µg/mL in each case.

With `C[C@@H]1[C@H](O)[C@@H](C)/C=C/C=C/CC/C=C/C=C/C=C/C=C/C(O[C@H]2O[C@H](C)[C@@H](O)[C@H](N)[C@@H]2O)CC2O[C@](O)(CC(O)C(O)CCC(O)CC(O)CC(O)CC(=O)O[C@H]1C)CC(O)C2C(=O)O` (stereo partly drawn) [nystatin], the MIC in the series with Cercospora kikuchi was 12 µg/mL (≈ 13 µM); with Fusarium roseum (Fusarium roseum), 6 µg/mL (≈ 6.48 µM); against Glomerella glycine it was 6 µg/mL (≈ 6.48 µM); in the series with Phytophthora capsici it was 100 µg/mL (≈ 108 µM); against Phytophthora parasitica, 100 µg/mL (≈ 108 µM); in the series with Pyricularia oryzae, 0.8 µg/mL (≈ 0.864 µM). Also, the MIC in the series with Rhizoctonia solani came to 1.5 µg/mL (≈ 1.62 µM); in the series with Rhizopus sp., 100 µg/mL (≈ 108 µM); in [1], 12 µg/mL (≈ 13 µM); in series [2] it was 50 µg/mL (≈ 54 µM); in [3] (ATCC34020), 6 µg/mL (≈ 6.48 µM); in [4], 1.5 µg/mL (≈ 1.62 µM). Further, the MIC worked out at 1.5 µg/mL (≈ 1.62 µM) in series [5]; 3 µg/mL (≈ 3.24 µM) against Microsporum gypseum; 25 µg/mL (≈ 27 µM) in [6]; 3 µg/mL (≈ 3.24 µM) in series [7]; 3 µg/mL (≈ 3.24 µM) in the series with Trichophyton ruburum; 1.5 µg/mL (≈ 1.62 µM) against Botrytis cinerea. In the series with Fusarium oxysporum, the MIC is 12 µg/mL (≈ 13 µM). Besides, the LD50 in the series on mice was ~ 200 mg/kg.

For `NC(=O)OCC(O)C(O)C(N)C(=O)NC(C(=O)O)C1OC(n2cc(CO)c(=O)[nH]c2=O)C(O)C1O` (stereo not drawn) [polyoxin B], the MIC in the series with Cercospora kikuchi (setting [10]), in the series on Fusarium roseum (Fusarium sambucinum), in the series with Glomerella glycine (setting [11]), in the series on Phytophthora capsici (setting [8]), with Phytophthora parasitica (setting [12]) and with Pyricularia oryzae was over 100 µg/mL each time. For the same molecule, the MIC was over 100 µg/mL in the series on Rhizoctonia solani (setting [9]); over 100 µg/mL with Rhizopus sp. (Rhizopus sp., read-out: MIC); over 100 µg/mL in series [1] (setting [13]); over 100 µg/mL in series [2] (setting [14]); over 100 µg/mL in series [3] (ATCC34020); over 100 µg/mL in [4] (setting [15]). Besides, the MIC (in series [5] (setting [19]); in the series with Microsporum gypseum (setting [20]); in series [6] (setting [16]); in series [7] (setting [17]); with Trichophyton ruburum (setting [18])) was over 100 µg/mL throughout.
